Patent publication US5656630A, “Method of combating fungus” (American Cyanamid Company, priority 1993, dated 1997)
Converted amounts (≈) assume the structure as drawn. Where two headings read alike, the source gives them in different places.

What was measured:
Phytophthora infestans [1] = assay type: in vivo, Phytophthora infestans (on tomato plants cv Prof. Rudloff); conditions: soil drench 2 days before infection, tomato
Water solubility = assay type: physicochemical
tomato plants = conditions: in vivo
Phytophthora infestans [2] = conditions: sunlight excluded; only the Z-isomer; reported in Brighton Crop Protection Conference, 1988, 17-24; cited from earlier work
[3] = 6.25 ppm active ingredient (0.11 kg/ha)
[4] = 12.5 ppm active ingredient (0.2 kg/ha)
[5] = 25 ppm active ingredient (0.44 kg/ha)
[6] = 50 ppm active ingredient (0.88 kg/ha)
[7] = 100 ppm active ingredient (1.76 kg/ha)

With COc1ccc(/C(=C\C(=O)N2CCOCC2)c2ccc(Cl)cc2)cc1OC [Z-isomer, Z-isomer of 4-[3-(4-chlorophenyl)-3-(3,4-dimethoxyphenyl)acryloyl]morpholine] the “Activity in % (ABBOTT formula, diseased leaf area)” value (“Activity in %” for short) (Phytophthora infestans [1]; [3]) was 100%, the “Activity in %” value (Phytophthora infestans [1]; [4]) was 100% and the “Activity in %” value (Phytophthora infestans [1]; [5]) was 100%. The “Activity in %” value (Phytophthora infestans [1]; [6]) was 100%, the “Activity in %” value (Phytophthora infestans [1]; [7]) was 100% and the solubility (Water solubility) was 7 µg/mL (≈ 18 µM). For the same compound, the “initial concentrations in the leaves, Z-isomer relative to E-isomer” value (tomato plants) was “about 5 times higher” and the fungitoxicity in vitro (Phytophthora infestans [2]) was “fungitoxic”.
In the case of COc1ccc(/C(=C/C(=O)N2CCOCC2)c2ccc(Cl)cc2)cc1OC [E-isomer], the “Activity in %” value (Phytophthora infestans [1]; [3]) is reported as 16%, the “Activity in %” value (Phytophthora infestans [1]; [4]) is reported as 47% and the “Activity in %” value (Phytophthora infestans [1]; [5]) is reported as 71%. The “Activity in %” value (Phytophthora infestans [1]; [6]) was 94%, the “Activity in %” value (Phytophthora infestans [1]; [7]) was 97% and the solubility (Water solubility) was 30 µg/mL (≈ 77.3 µM).
For COc1ccc(C(=CC(=O)N2CCOCC2)c2ccc(Cl)cc2)cc1OC [E/Z 50:50, 4-[3-(4-chlorophenyl)-3-(3,4-dimethoxyphenyl)-acryloyl]morpholine], the “Activity in %” value (Phytophthora infestans [1]; [3]) was 91%, the “Activity in %” value (Phytophthora infestans [1]; [4]) was 98% and the “Activity in %” value (Phytophthora infestans [1]; [5]) was 100%. The “Activity in %” value (Phytophthora infestans [1]; [6]) was 100% and the “Activity in %” value (Phytophthora infestans [1]; [7]) was 100%.
